Assay [1] relates to carrageenin-induced paw edema. The assay can be described thus: Carrageenin-induced paw edema model (in vivo). Also on record: species or system C57BL/6J mice. The conditions noted are these: mice, oral in olive oil 1 hour before carrageenin, paw volume 3 hours later. On the procedure:
[2] Carrageenin-induced paw edema model (in vivo)
C57BL/6J mice (6 to 8 weeks of age) were used. […] After one hour of the administration, 50 μl of 1% solution of carrageenin in normal saline was administered intradermally at foot pad of the right hind paw. Three hours later, the volume of the right hind paw was measured and compared with the initial volume.
On the technique in general: Carrageenan injected into the paw causes an acute inflammation.

In assay [2] the target is T1, human peripheral type cannabinoid receptor (hCB2) (Homo sapiens, UniProt P34972).
T1 construct: expressed in transfected cells; host or cells: CHO cells
T1 sequence (P34972 whole entry): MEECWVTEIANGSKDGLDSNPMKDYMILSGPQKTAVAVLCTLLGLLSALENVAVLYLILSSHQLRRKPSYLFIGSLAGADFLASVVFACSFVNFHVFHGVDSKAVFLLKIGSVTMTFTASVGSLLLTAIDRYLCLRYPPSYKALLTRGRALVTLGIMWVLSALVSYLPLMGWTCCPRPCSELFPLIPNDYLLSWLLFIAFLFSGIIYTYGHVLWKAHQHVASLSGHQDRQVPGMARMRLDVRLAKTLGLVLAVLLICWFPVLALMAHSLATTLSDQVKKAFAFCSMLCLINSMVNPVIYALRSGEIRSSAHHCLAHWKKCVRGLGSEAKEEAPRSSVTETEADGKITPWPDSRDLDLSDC
The assay can be described thus: Binding assay (in vitro), [3H]Win55212-2 displacement, membrane fractions of human CB2-CHO. As to conditions: for Ki: hCB2 expressed in CHO cells, [3H]Win55212-2 2 nM, 30° C. 90 minutes; for C/S (Ki central type receptors / Ki peripheral type receptors): indicator of selectivity for peripheral type receptors.

The target of assay [3] is T2, human central type cannabinoid receptor (hCB1) (Homo sapiens, UniProt P21554).
T2 construct: expressed in transfected cells; host or cells: CHO cells
T2 sequence (P21554 whole entry): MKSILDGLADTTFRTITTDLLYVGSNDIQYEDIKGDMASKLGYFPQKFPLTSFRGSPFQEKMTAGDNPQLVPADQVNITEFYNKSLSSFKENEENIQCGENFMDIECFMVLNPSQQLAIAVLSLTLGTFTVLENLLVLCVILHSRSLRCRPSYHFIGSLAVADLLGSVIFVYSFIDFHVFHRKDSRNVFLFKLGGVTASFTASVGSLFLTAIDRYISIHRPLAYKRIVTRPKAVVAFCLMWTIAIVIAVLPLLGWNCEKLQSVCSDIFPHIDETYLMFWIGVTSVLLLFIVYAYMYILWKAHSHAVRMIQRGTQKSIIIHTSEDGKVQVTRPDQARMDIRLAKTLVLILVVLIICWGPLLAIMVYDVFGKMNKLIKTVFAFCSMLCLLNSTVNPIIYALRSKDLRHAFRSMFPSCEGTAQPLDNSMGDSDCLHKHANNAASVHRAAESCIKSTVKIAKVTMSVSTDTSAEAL
The assay can be described thus: Binding assay (in vitro), [3H]Win55212-2 displacement, membrane fractions of human CB1-CHO. The conditions noted are these: hCB1 expressed in CHO cells, [3H]Win55212-2 2 nM, 30° C. 90 minutes.
Experimental: Membrane fractions of human central type cannabinoid receptor (human CB1-CHO, hereinafter called hCB1) and human peripheral type cannabinoid receptor (human CB2-CHO, hereinafter called hCB2) expressed in CHO cells were used as samples. The reference material (hCB1: 20 μg/ml, hCB2: 5 μg/ml), labeled ligand ([^3H]Win55212-2, 2 nM) and unlabeled ligand Win55212-2 or test compound were added to a 24-well round bottom plate, and the plate was incubated at 30° C. for 90 minutes. 50 mM Tris-HB55 containing 0.2% BSA was used as an assay buffer. After incubation, the mixture was filtered (Packard, Unifilter 24GF/B) and dried, and then a scintillation solution (Packard, Microsint-20) was added thereto to determine the radioactivity of the sample (Packard, Top count A9912V). Nonspecific binding was determined by the addition of excessive amount of Win55212-2 (10 μM), and specific binding was calculated by subtracting the nonspecific binding from total binding determined by the addition of the labeled ligand only. The test compound was dissolved in DMSO to make the final concentration in DMSO to be 0.1%. IC50 value was determined from the proportion of the bound test compound in the specific binding, and K1 value of the test compound was calculated from the ICso value and Kd value of [^3H]Win55212-2. K1 value for the central type receptors/K1 value for peripheral type receptors (C/S) was also calculated as an indicator of the selectivity of the test compound for peripheral type receptors.

Where [4] appears, read: Ki value Peripheral type receptor (S).
Where [5] appears, read: read-out: Ki value Central type receptor (C).
Setting [6] is: Ki value Central type receptor (C).
[7] abbreviates: read-out: Ki value Peripheral type receptor (S).

Where two headings read alike, the source gives them in different places.

On to `CCCCCOc1c(OC)ccc2cc(C(=O)NCc3ccncc3)c(=O)[nH]c12` [Example 3-9, 7-methoxy-2-oxo-8-pentyloxy-1,2-dihydroquinoline-3-carboxylic acid (4-pyridyl methyl)amide], for which the ED50 in assay [1] was 0.58 mg/kg; p.o.

With `CCCCCOc1c(OC)ccc2cc(C(=O)NCCN3CCOCC3)c(=O)[nH]c12` [Example 3-11, 7-methoxy-2-oxo-8-pentyloxy-1,2-dihydroquinoline-3-carboxylic acid (2-morpholinoethyl)amide], the ED50 in assay [1] is on record as 0.40 mg/kg; p.o.

On to `CCCOc1c(OC)ccc2cc(C(=O)NCCc3ccccc3)c(=O)[nH]c12` [Example 3-30, 7-methoxy-2-oxo-8-propoxy-1,2-dihydroquinoline-3-carboxylic acid (2-phenylethyl)amide], for which, in assay [2] (setting [4]), the affinity corresponds to a Ki of 0.09 nM. Besides, the “C/S (Ki central type receptors / Ki peripheral type receptors)” value in assay [2] is on record as 1862. Besides, the ED60 in assay [1] is 0.49 mg/kg; p.o.

Consider `CCCCCOc1cc2cc(C(=O)NCc3ccc4c(c3)OCO4)c(=O)[nH]c2cc1OC` [Example 3-33, 7-methoxy-2-oxo-6-pentyloxy-1,2-dihydroquinoline-3-carboxylic acid (3,4-methylenedioxybenzyl)amide], for which the Ki came out at 1.06 nM in assay [2] (setting [4]) and 273 nM in assay [3] (setting [5]). In assay [2], the “C/S (Ki central type receptors / Ki peripheral type receptors)” value turned out to be 258.

In the case of `CCOc1c(OC)ccc2cc(C(=O)NCc3ccc4c(c3)OCO4)c(=O)[nH]c12` [Example 3-35, 8-ethoxy-7-methoxy-2-oxo-1,2-dihydroquinoline-3-carboxylic acid (3,4-methylenedioxybenzyl) amide], the Ki came to 0.053 nM in assay [2] (setting [4]) and 409 nM in assay [3] (setting [5]). For the same compound, the “C/S (Ki central type receptors / Ki peripheral type receptors)” value in assay [2] is given as 7713.

In the case of `CCCCCOc1c(OC)ccc2cc(C(=O)NCCc3ccc(F)cc3)c(=O)n(C)c12` [Example 3-36, 1-methyl-7-methoxy-2-oxo-8-pentyloxy-1,2-dihydroquinoline-3-carboxylic acid [2-(4-fluorophenyl)ethyl]amide], the values for the Ki in assay [2] (setting [4]) and in assay [3] (setting [5]) were 0.021 nM and 183 nM, respectively. Moreover, in assay [2], the “C/S (Ki central type receptors / Ki peripheral type receptors)” value is 8695.

Consider `CCCCCOc1c(OC)ccc2cc(C(=O)NCCc3ccc(O)cc3)c(=O)n(C)c12` [Example 3-41, 1-methyl-7-methoxy-2-oxo-8-pentyloxy-1,2-dihydroquinoline-3-carboxylic acid [2-(4-hydroxyphenyl)ethyl]amide], for which the values for the Ki in assay [2] (setting [4]) and in assay [3] (setting [6]) were 0.35 nM and 62 nM, respectively. The “C/S (Ki central type receptors / Ki peripheral type receptors)” value in assay [2] was determined as 176.

Regarding `CCCCCOc1c(OC)ccc2cc(C(=O)NCc3ccc4c(c3)OCO4)c(=O)n(C)c12` [Example 3-42, 1-methyl-7-methoxy-2-oxo-8-pentyloxy-1,2-dihydroquinoline-3-carboxylic acid (3,4-methylenedioxybenzyl) amide], the figures for the Ki in assay [2] (setting [4]) and in assay [3] (setting [5]) were 0.22 nM and 315 nM, respectively. Besides, the “C/S (Ki central type receptors / Ki peripheral type receptors)” value in assay [2] was found to be 1430.

Turning to `CCCCCOc1cc2cc(C(=O)NCCc3ccc(F)cc3)c(=O)n(C)c2cc1OC` [Example 3-43, 1-methyl-7-methoxy-2-oxo-6-pentyloxy-1,2-dihydroquinoline-3-carboxylic acid [2-(4-fluorophenyl)ethyl]amide], the Ki in assay [2] (setting [4]) is 0.043 nM; in assay [3] (setting [5]) it was 864 nM. The “C/S (Ki central type receptors / Ki peripheral type receptors)” value in assay [2] was 20093.

On to `CCCCCOc1cc2cc(C(=O)NCCN3CCOCC3)c(=O)n(C)c2cc1OC` [Example 3-44, 1-methyl-7-methoxy-2-oxo-6-pentyloxy-1,2-dihydroquinoline-3-carboxylic acid (2-morpholinoethyl)amide], for which the inhibition constant (Ki) amounted to 0.18 nM in assay [2] (setting [4]) and 193 nM in assay [3] (setting [5]). The “C/S (Ki central type receptors / Ki peripheral type receptors)” value in assay [2] is on record as 1075.

With `CCCCCOc1cc2cc(C(=O)NCc3ccc4c(c3)OCO4)c(=O)n(C)c2cc1OC` [Example 3-45, 1-methyl-7-methoxy-2-oxo-6-pentyloxy-1,2-dihydroquinoline-3-carboxylic acid (3,4-methylenedioxybenzyl)amide], the Ki in assay [2] (setting [4]) stood at 0.032 nM; in assay [3] (setting [5]), 381 nM. The “C/S (Ki central type receptors / Ki peripheral type receptors)” value in assay [2] is 11902.

With `CCCCCOc1ccc2cc(C(=O)NCCc3ccc(F)cc3)c(=O)[nH]c2c1OCCCCC` [Example 3-46, 7,8-dipentyloxy-2-oxo-1,2-dihydroquinoline-3-carboxylic acid [2-(4-fluorophenyl)ethyl]amide], the Ki in assay [2] (setting [4]) is 0.026 nM; in assay [3] (setting [6]) it was 228 nM. In assay [2], the “C/S (Ki central type receptors / Ki peripheral type receptors)” value is on record as 8776.

Take `CCCCOc1c(OC)ccc2cc(CO)c(=O)[nH]c12` [Example 5-1, 8-butoxy-3-hydroxy methyl-7-methoxy-2-oxo-1,2-dihydroquinoline]: the Ki was 0.45 nM in assay [2] (setting [7]) and 686 nM in assay [3] (setting [5]).

`CCOc1c(OC)ccc2cc(CO)c(=O)[nH]c12` [Example 5-2, 8-ethoxy-3-hydroxymethyl-7-methoxy-2-oxo-1,2-dihydroquinoline]: the Ki in assay [2] (setting [7]) came to 0.055 nM; in assay [3] (setting [5]), 122 nM. The “C/S (Ki central type receptors / Ki peripheral type receptors)” value in assay [2] was found to be 2219.

For the compound `CCCCOc1c(OC)ccc2cc(COC(=O)Nc3ccc(F)cc3)c(=O)[nH]c12` [Example 6-1, N-(4-fluorophenyl)carbamic acid (8-butoxy-7-methoxy-2-oxo-1,2-dihydroquinoline-3-yl)methyl ester], the Ki in assay [2] (setting [7]) worked out at 0.045 nM; in assay [3] (setting [5]), 703 nM. Also, the “C/S (Ki central type receptors / Ki peripheral type receptors)” value in assay [2] came to 15612.

For the compound `CCOc1c(OC)ccc2cc(COC(=O)Nc3ccncc3)c(=O)[nH]c12` [Example 6-2, N-pyridine-4-ylcarbamic acid (8-ethoxy-7-methoxy-2-oxo-1,2-dihydroquinoline-3-yl)methyl ester], the figures for the Ki in assay [2] (setting [7]) and in assay [3] (setting [5]) were 0.034 nM and 437 nM, respectively. Besides, the “C/S (Ki central type receptors / Ki peripheral type receptors)” value in assay [2] is recorded as 12866.

Turning to `CCOc1c(OC)ccc2cc(CN(C)C)c(=O)[nH]c12` [Example 7-1, 3-dimethyl aminomethyl-8-ethoxy-7-methoxy-2-oxo-1,2-dihydroquinoline], the Ki is 0.17 nM in assay [2] (setting [7]) and 3640 nM in assay [3] (setting [5]). For the same compound, the “C/S (Ki central type receptors / Ki peripheral type receptors)” value in assay [2] is on record as 21432.

As for `CCOc1c(OC)ccc2cc(CN3CCOCC3)c(=O)[nH]c12` [Example 7-3, 8-ethoxy-7-methoxy-3-morpholinomethyl-2-oxo-1,2-dihydroquinoline], the figures for the Ki in assay [2] (setting [7]) and in assay [3] (setting [5]) were 0.062 nM and 666 nM, respectively. In addition, the “C/S (Ki central type receptors / Ki peripheral type receptors)” value in assay [2] was 10735.

As to `CCCCOc1c(OC)ccc2cc(CNC(=O)Nc3ccc(F)cc3)c(=O)[nH]c12` [Example 8-1, N-[(8-butoxy-7-methoxy-2-oxo-1,2-dihydroquinoline-3-yl)methyl]-N′-(4-fluorophenyl)urea], the values for the inhibition constant Ki in assay [2] (setting [7]) and in assay [3] (setting [5]) were 0.44 nM and 440 nM, respectively. Further, the “C/S (Ki central type receptors / Ki peripheral type receptors)” value in assay [2] came out at 1000.

As for `CCCCOc1c(OC)ccc2cc(CNC(=O)Cc3ccc(O)cc3)c(=O)[nH]c12` [Example 8-2, N-[(8-butoxy-7-methoxy-2-oxo-1,2-dihydroquinoline-3-yl)methyl]-(4-hydroxyphenyl)acetamide], the Ki in assay [2] (setting [4]) came out at 0.27 nM; in assay [3] (setting [5]), 727 nM. In addition, the “C/S (Ki central type receptors / Ki peripheral type receptors)” value in assay [2] amounted to 2692.

The term Ki denotes the equilibrium dissociation constant of an inhibitor or competing ligand from its target.

The record behind these values is patent US6806276B2, “2-oxoquinoline compounds and pharmaceutical uses thereof” (Japan Tobacco Inc., priority 1999, dated 2004).
